Test results from US20250129070A1, “BIFUNCTIONAL ANDROGEN RECEPTOR COMPOUNDS” (priority 2023, published 2025).

Legend:
AR / CBP ternary complex = experiment: Ternary complex formation assay (sandwich ELISA, AR capture / CBP detection) in VCaP cell lysates; format: cell-based; conditions: 1.5 hours treatment, sandwich ELISA (AR capture, CBP or p300 detection)
Summary of the method: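 VCaP cells (50K/well, 5% charcoal-stripped FBS, ≥3 days) treated with bifunctional compound for 1.5 h, then lysed 30 min at 4 °C. AR captured on anti-AR (AR 441) plates; bound CBP or p300 detected by rabbit mAb plus HRP secondary. QuantaRed chemifluorescence read at ex 570/em 585, immediately and at 5 and 15 min.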

VCaP cells = experiment: VCaP growth inhibition assay; format: cell-based; conditions: 30 pM R1881, 9 days, CTG
Summary of the method: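 VCaP cells in phenol red-free DMEM/5% CSS, pre-incubated 72 h, then stimulated with R1881 (final 30 pM) and treated with 1:5 serial dilutions (final 100 nM to 10 fM) for 9 days at 37 °C. Viability by CellTiter-Glo luminescence; IC50 from 4-parameter logistic fit of RLU vs concentration.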

`COc1cc(OC2C(C)(C)C(NC(=O)c3ccc(N4CC5(CCC(C6CCC(n7nc(N8CCCc9cc(-c%10cnn(C)c%10)c(C(F)F)cc98)c8c7CCN(C(C)=O)C8)CC6)CC5)C4)cc3)C2(C)C)ccc1C#N` (stereo not drawn) [Compound 378, 4-[7-[4-[5-acetyl-3-[7-(difluoromethyl)-6-(1-methylpyrazol-4-yl)-3,4-dihydro-2H-quinolin-1-yl]-6,7-dihydro-4H-pyrazolo[4,3-c]pyridin-1-yl]cyclohexyl]-2-azaspiro[3.5]nonan-2-yl]-N-[3-(4-cyano-3-methoxy-phenoxy)-2,2,4,4-tetramethyl-cyclobutyl]benzamide] showed an EC50 (AR / CBP ternary complex) of 1 to 10 nM and an IC50 (VCaP cells) of 1 to 100 nM.

Work on `CC(=O)N1CCc2c(c(N3CCCc4ccc(C(F)F)cc43)nn2C2CCN(CC3CCN(c4ncc(C(=O)NC5C(C)(C)C(Oc6ccc(C#N)c(Cl)c6)C5(C)C)cn4)CC3)CC2)C1` (stereo not drawn) [Compound 150, 2-[4-[[4-[5-acetyl-3-[7-(difluoromethyl)-3,4-dihydro-2H-quinolin-1-yl]-6,7-dihydro-4H-pyrazolo[4,3-c]pyridin-1-yl]-1-piperidyl]methyl]-1-piperidyl]-N-[3-(3-chloro-4-cyano-phenoxy)-2,2,4,4-tetramethyl-cyclobutyl]pyrimidine-5-carboxamide] yielded an EC50 (AR / CBP ternary complex) of 1 to 10 nM and an IC50 (VCaP cells) of at most 0.1 nM.

`CC(=O)N1CCc2c(c(-c3cccc4cc(-c5cnn(CCC6CC7(C6)CN(c6ncc(C(=O)NC8C(C)(C)C(Oc9ccc(C#N)c(Cl)c9)C8(C)C)cn6)C7)c5)ncc34)nn2C)C1` (stereo not drawn) [Compound 226, 2-[6-[2-[4-[8-(5-acetyl-1-methyl-6,7-dihydro-4H-pyrazolo[4,3-c]pyridin-3-yl)-3-isoquinolyl]pyrazol-1-yl]ethyl]-2-azaspiro[3.3]heptan-2-yl]-N-[3-(3-chloro-4-cyano-phenoxy)-2,2,4,4-tetramethyl-cyclobutyl]pyrimidine-5-carboxamide] gave an EC50 (AR / CBP ternary complex) of under 1 nM and an IC50 (VCaP cells) of at most 0.1 nM.

`COc1cc(OC2C(C)(C)C(NC(=O)c3ccc(N4CCN(CC5CCC(n6nc(N7CCCc8cc(-c9cnn(C)c9)c(C(F)F)cc87)c7c6CCN(C(C)=O)C7)CC5)CC4)cc3)C2(C)C)ccc1C#N` (stereo not drawn) [Compound 319, 4-[4-[[4-[5-acetyl-3-[7-(difluoromethyl)-6-(1-methylpyrazol-4-yl)-3,4-dihydro-2H-quinolin-1-yl]-6,7-dihydro-4H-pyrazolo[4,3-c]pyridin-1-yl]cyclohexyl]methyl]piperazin-1-yl]-N-[3-(4-cyano-3-methoxy-phenoxy)-2,2,4,4-tetramethyl-cyclobutyl]benzamide] was tested, and the EC50 (AR / CBP ternary complex) was under 1 nM and the IC50 (VCaP cells) was at most 0.1 nM.

Compound `COc1cc(OC2C(C)(C)C(NC(=O)c3ccc(N4CCC5(CC4)CC4(CC(n6nc(N7CCCc8cc(-c9cnn(C)c9)c(C(F)F)cc87)c7c6CCN(C(C)=O)C7)C4)C5)cc3)C2(C)C)ccc1C#N` (stereo not drawn) [Compound 286, 4-[2-[5-acetyl-3-[7-(difluoromethyl)-6-(1-methylpyrazol-4-yl)-3,4-dihydro-2H-quinolin-1-yl]-6,7-dihydro-4H-pyrazolo[4,3-c]pyridin-1-yl]-9-azadispiro[3.1.5^6.1^4]dodecan-9-yl]-N-[3-(4-cyano-3-methoxy-phenoxy)-2,2,4,4-tetramethyl-cyclobutyl]benzamide] has an EC50 (AR / CBP ternary complex) of over 100 nM and an IC50 (VCaP cells) of 1 to 100 nM.

Compound `CC(=O)N1CCc2c(c(N3CCCc4cc(-c5cnn(C)c5)c(C(F)F)cc43)nn2C2CN(CC3CCN(c4ncc(C(=O)NC5C(C)(C)C(Oc6ccc(C#N)c(Cl)c6)C5(C)C)cn4)CC3)C2)C1` (stereo not drawn) [Compound 10, 2-[4-[[3-[5-acetyl-3-[7-(difluoromethyl)-6-(1-methylpyrazol-4-yl)-3,4-dihydro-2H-quinolin-1-yl]-6,7-dihydro-4H-pyrazolo[4,3-c]pyridin-1-yl]azetidin-1-yl]methyl]-1-piperidyl]-N-[3-(3-chloro-4-cyano-phenoxy)-2,2,4,4-tetramethyl-cyclobutyl]pyrimidine-5-carboxamide] has an EC50 (AR / CBP ternary complex) of over 100 nM and an IC50 (VCaP cells) of 1 to 100 nM.

With `COc1cc(OC2C(C)(C)C(NC(=O)c3ccc(N4CCN(C5CCN(c6ccc(-c7cc8c(cc7C(F)F)N(c7nn(C9CCOCC9)c9c7CN(C(C)=O)CC9)CCC8)cn6)CC5)CC4)cc3)C2(C)C)ccc1C#N` (stereo not drawn) [Compound 325, 4-[4-[1-[5-[1-(5-acetyl-1-tetrahydropyran-4-yl-6,7-dihydro-4H-pyrazolo[4,3-c]pyridin-3-yl)-7-(difluoromethyl)-3,4-dihydro-2H-quinolin-6-yl]-2-pyridyl]-4-piperidyl]piperazin-1-yl]-N-[3-(4-cyano-3-methoxy-phenoxy)-2,2,4,4-tetramethyl-cyclobutyl]benzamide] the EC50 (AR / CBP ternary complex) was under 1 nM and the IC50 (VCaP cells) was 0.1 to 1 nM.

Work on `CC(=O)N1CCc2c(c(N3CCCc4cc(-c5cnn(C)c5)c(C(F)F)cc43)nn2C2CCC(OC3CN(c4ncc(C(=O)NC5C(C)(C)C(Oc6ccc(C#N)c(Cl)c6)C5(C)C)cn4)C3)CC2)C1` (stereo not drawn) [Compound 341] yielded an EC50 (AR / CBP ternary complex) of under 1 nM and an IC50 (VCaP cells) of 0.1 to 1 nM.

`CC(=O)N1CCc2c(c(N3CCCc4cc(-c5cnn(C)c5)c(C(F)F)cc43)nn2C2CCC(CN3CCN(c4ncc(C(=O)NC5C(C)(C)C(Oc6ccc(C#N)c(Cl)c6)C5(C)C)cn4)CC3)CC2)C1` (stereo not drawn) [Compound 320, 2-[4-[[4-[5-acetyl-3-[7-(difluoromethyl)-6-(1-methylpyrazol-4-yl)-3,4-dihydro-2H-quinolin-1-yl]-6,7-dihydro-4H-pyrazolo[4,3-c]pyridin-1-yl]cyclohexyl]methyl]piperazin-1-yl]-N-[3-(3-chloro-4-cyano-phenoxy)-2,2,4,4-tetramethyl-cyclobutyl]pyrimidine-5-carboxamide] gave an EC50 (AR / CBP ternary complex) of under 1 nM and an IC50 (VCaP cells) of 0.1 to 1 nM.

With `CC(=O)N1CCc2c(c(N3CCCc4ccc(C(F)F)cc43)nn2C2CCN(C(=O)C3CCN(c4ncc(C(=O)NC5C(C)(C)C(Oc6ccc(C#N)c(Cl)c6)C5(C)C)cn4)CC3)CC2)C1` (stereo not drawn) [Compound 122, 2-[4-[4-[5-acetyl-3-[7-(difluoromethyl)-3,4-dihydro-2H-quinolin-1-yl]-6,7-dihydro-4H-pyrazolo[4,3-c]pyridin-1-yl]piperidine-1-carbonyl]-1-piperidyl]-N-[3-(3-chloro-4-cyano-phenoxy)-2,2,4,4-tetramethyl-cyclobutyl]pyrimidine-5-carboxamide] the EC50 (AR / CBP ternary complex) was under 1 nM and the IC50 (VCaP cells) was at most 0.1 nM.

For `CC(=O)N1CCc2c(c(N3CCCc4cc(-c5cnn(C)c5)c(C(F)F)cc43)nn2C2CCN(c3ncc(C(=O)NC4C(C)(C)C(Oc5ccc(C#N)c(Cl)c5)C4(C)C)cn3)CC2)C1` (stereo not drawn) [Compound 95, 2-[4-[5-acetyl-3-[7-(difluoromethyl)-6-(1-methylpyrazol-4-yl)-3,4-dihydro-2H-quinolin-1-yl]-6,7-dihydro-4H-pyrazolo[4,3-c]pyridin-1-yl]-1-piperidyl]-N-[3-(3-chloro-4-cyano-phenoxy)-2,2,4,4-tetramethyl-cyclobutyl]pyrimidine-5-carboxamide], the EC50 (AR / CBP ternary complex) was 1 to 10 nM and the IC50 (VCaP cells) was 0.1 to 1 nM.

For `CC(=O)N1CCc2c(c(N3CCCc4cc(C#N)ccc43)nn2C2CCN(CC3CCN(c4ncc(C(=O)NC5C(C)(C)C(Oc6ccc(C#N)c(Cl)c6)C5(C)C)cn4)CC3)CC2)C1` (stereo not drawn) [Compound 155, 2-[4-[[4-[5-acetyl-3-(6-cyano-3,4-dihydro-2H-quinolin-1-yl)-6,7-dihydro-4H-pyrazolo[4,3-c]pyridin-1-yl]-1-piperidyl]methyl]-1-piperidyl]-N-[3-(3-chloro-4-cyano-phenoxy)-2,2,4,4-tetramethyl-cyclobutyl]pyrimidine-5-carboxamide], the EC50 (AR / CBP ternary complex) was under 1 nM and the IC50 (VCaP cells) was 0.1 to 1 nM.

With `Cn1cc(-c2cc3c(cc2C(F)F)N(c2cc(C4CCN(CC5CCN(c6ncc(C(=O)NC7C(C)(C)C(Oc8ccc(C#N)c(Cl)c8)C7(C)C)cn6)CC5)CC4)c4c(c2)n(C)c(=O)n4C)CCC3)cn1` (stereo not drawn) [Compound 214, N-[3-(3-chloro-4-cyano-phenoxy)-2,2,4,4-tetramethyl-cyclobutyl]-2-[4-[[4-[6-[7-(difluoromethyl)-6-(1-methylpyrazol-4-yl)-3,4-dihydro-2H-quinolin-1-yl]-1,3-dimethyl-2-oxo-benzimidazol-4-yl]-1-piperidyl]methyl]-1-piperidyl]pyrimidine-5-carboxamide] the EC50 (AR / CBP ternary complex) was under 1 nM and the IC50 (VCaP cells) was 1 to 100 nM.

For `COc1cc(OC2C(C)(C)C(NC(=O)c3ccc(N4CCC(N5CCC6(CC5)CC(n5nc(N7CCCc8cc(-c9cnn(C)c9)c(C(F)F)cc87)c7c5CCN(C(C)=O)C7)C6)CC4)cc3)C2(C)C)ccc1C#N` (stereo not drawn) [Compound 374, 4-[4-[2-[5-acetyl-3-[7-(difluoromethyl)-6-(1-methylpyrazol-4-yl)-3,4-dihydro-2H-quinolin-1-yl]-6,7-dihydro-4H-pyrazolo[4,3-c]pyridin-1-yl]-7-azaspiro[3.5]nonan-7-yl]-1-piperidyl]-N-[3-(4-cyano-3-methoxy-phenoxy)-2,2,4,4-tetramethyl-cyclobutyl]benzamide], the EC50 (AR / CBP ternary complex) was under 1 nM and the IC50 (VCaP cells) was 0.1 to 1 nM.

Compound `CC(=O)N1CCc2c(c(N3CCCc4cc(C#N)c(C(F)F)cc43)nn2C2CCN(CC3CCN(c4ncc(C(=O)NC5C(C)(C)C(Oc6ccc(C#N)c(Cl)c6)C5(C)C)cn4)CC3(C)C)CC2)C1` (stereo not drawn) [Compound 450, 2-[4-[[4-[5-acetyl-3-[6-cyano-7-(difluoromethyl)-3,4-dihydro-2H-quinolin-1-yl]-6,7-dihydro-4H-pyrazolo[4,3-c]pyridin-1-yl]-1-piperidyl]methyl]-3,3-dimethyl-1-piperidyl]-N-[3-(3-chloro-4-cyano-phenoxy)-2,2,4,4-tetramethyl-cyclobutyl]pyrimidine-5-carboxamide] has an EC50 (AR / CBP ternary complex) of under 1 nM and an IC50 (VCaP cells) of 0.1 to 1 nM.
